Measurements as given in article PMC9643853, “Synthesis and evaluation of 3-alkynyl-5-aryl-7-aza-indoles as broad-spectrum antiviral agents” (Frontiers in Chemistry, 2022).

What was measured:
VEEV (TC-83) = assay: microbe, parasite or virus in culture; assay type: cell-based; settings: Venezuelan equine encephalitis virus, U-87 MG, 18 h, read-out: VEEV EC50
RSV-A [1] = assay: RSV-A cytopathic effect (CPE) reduction assay in HEp-2 cells, MTS read-out; assay type: cell-based, human respiratory syncytial virus, RSV-A strain Long
in vitro [2] = settings: human
in vitro [3] = settings: human; remark: listed apart in the source
AAK1 = AAK1 (Homo sapiens, UniProt Q2M2I8); assay: LanthaScreen Eu Kinase Binding Assay for AAK1
AAK1, sequence (Q2M2I8 whole entry): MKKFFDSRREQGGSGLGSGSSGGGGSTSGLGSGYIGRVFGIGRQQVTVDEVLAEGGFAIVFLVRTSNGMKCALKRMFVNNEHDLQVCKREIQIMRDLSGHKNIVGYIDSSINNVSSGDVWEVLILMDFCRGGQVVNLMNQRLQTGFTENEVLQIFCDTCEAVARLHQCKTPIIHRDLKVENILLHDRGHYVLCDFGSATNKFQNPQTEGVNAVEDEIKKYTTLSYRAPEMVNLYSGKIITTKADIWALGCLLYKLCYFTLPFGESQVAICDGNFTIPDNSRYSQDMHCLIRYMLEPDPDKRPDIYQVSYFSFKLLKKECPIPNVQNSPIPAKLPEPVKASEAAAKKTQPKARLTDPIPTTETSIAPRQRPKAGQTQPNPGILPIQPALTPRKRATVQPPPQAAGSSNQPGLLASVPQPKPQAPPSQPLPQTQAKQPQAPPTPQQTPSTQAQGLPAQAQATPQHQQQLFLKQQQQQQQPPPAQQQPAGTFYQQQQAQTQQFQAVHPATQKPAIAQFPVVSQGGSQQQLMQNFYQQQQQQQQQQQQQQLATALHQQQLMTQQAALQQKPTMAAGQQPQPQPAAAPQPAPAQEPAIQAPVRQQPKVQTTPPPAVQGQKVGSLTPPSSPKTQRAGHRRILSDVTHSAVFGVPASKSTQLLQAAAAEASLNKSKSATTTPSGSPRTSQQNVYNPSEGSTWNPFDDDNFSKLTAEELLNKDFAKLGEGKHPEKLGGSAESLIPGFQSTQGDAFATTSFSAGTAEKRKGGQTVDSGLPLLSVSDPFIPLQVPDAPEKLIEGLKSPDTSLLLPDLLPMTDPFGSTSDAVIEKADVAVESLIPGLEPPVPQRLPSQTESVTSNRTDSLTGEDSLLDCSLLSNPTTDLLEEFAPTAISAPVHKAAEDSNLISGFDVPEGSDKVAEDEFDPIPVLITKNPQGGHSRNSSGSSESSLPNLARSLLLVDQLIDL

RSV-A [4] = assay: Anti-RSV-A activity in A549 cells, viral RNA in supernatant by RT-qPCR; assay type: cell-based, RSV-A strain Long; settings: human respiratory syncytial virus, A549, 120 h, read-out: RSV-A EC50 (A549, viral RNA levels)
SARS-CoV-2 = assay: microbe, parasite or virus in culture; assay type: cell-based, SARS-CoV-2 BetaCov/Belgium/GHB-03021/2020; settings: Severe acute respiratory syndrome coronavirus 2, 96 h, read-out: SARS-CoV-2 EC50
in vitro [5] = settings: African green monkey
[6] = human respiratory syncytial virus, HEp-2, 96 h; read-out: RSV-A EC50
[7] = HEp-2 cells, inhibition of virus-induced cytopathogenicity by 50%, MOI 0.01, 4 days; read-out: RSV-A EC50

Molecule | EC50 (VEEV (TC-83)) | EC50 (RSV-A [1]; [6]) | CC50 (in vitro [2]) | CC50 at 4 days (in vitro [3]) | other results
COc1ccc(-c2cnc3[nH]cc(C#Cc4cccnc4)c3c2)cc1 [Compound 4a, 5-(4-Methoxyphenyl)-3-(pyridin-3-ylethynyl)-1H-pyrrolo[2,3-b]pyridine] | 6.81 ± 1.87 µM | 0.048 ± 0.037 µM | > 10 µM | 0.24 ± 0.23 µM | –
COc1cccc(-c2cnc3[nH]cc(C#Cc4cccnc4)c3c2)c1 [Compound 4b] | > 10 µM | 0.67 ± 0.43 µM | > 10 µM | 6 ± 5.66 µM | –
COc1ccccc1-c1cnc2[nH]cc(C#Cc3cccnc3)c2c1 [Compound 4c] | 5.34 ± 1.87 µM | 0.69 ± 0.32 µM | > 10 µM | 6 ± 5.66 µM | –
COc1cc(OC)cc(-c2cnc3[nH]cc(C#Cc4cccnc4)c3c2)c1 [Compound 4d] | > 10 µM | – | > 10 µM | > 50 µM | selectivity index (SI) (RSV-A [1]; CC50 HEp-2 / EC50 RSV-A): 90; EC50 (RSV-A [1]; human respiratory syncytial virus, HEp-2, 96 h, read-out: RSV-A EC50): 0.55 ± 0.41 µM; AAK1 affinity (in words) (AAK1): low nanomolar AAK1 affinity; IC50 (AAK1): 0.0062 µM; EC50 (RSV-A [4]): 0.05 µM
COc1cc(-c2cnc3[nH]cc(C#Cc4cccnc4)c3c2)cc(OC)c1OC [Compound 4e] | 1.5 ± 0.17 µM | 0.71 ± 0.55 µM | > 10 µM | 1.2 ± 1.13 µM | –
COCCOc1ccc(-c2cnc3[nH]cc(C#Cc4cccnc4)c3c2)cc1 [Compound 4f] | > 10 µM | 30 ± 28.3 µM | > 10 µM | > 50 µM | anti-RSV activity (in words) (RSV-A [1]; HEp-2 cells): completely devoid of anti-RSV activity
COc1cc(-c2cnc3[nH]cc(C#Cc4cccnc4)c3c2)ccn1 [Compound 4g] | > 10 µM | 2.71 ± 1.01 µM | > 10 µM | > 50 µM | –
Clc1cccc(-c2cnc3[nH]cc(C#Cc4cccnc4)c3c2)c1 [Compound 4h] | > 10 µM | 2.89 ± 2.24 µM | > 10 µM | > 50 µM | –
Fc1ccc(-c2cnc3[nH]cc(C#Cc4cccnc4)c3c2)cc1 [Compound 4i] | 9.05 ± 1.03 µM | 2.23 ± 1.32 µM | > 10 µM | > 50 µM | –
C(#Cc1c[nH]c2ncc(-c3ccoc3)cc12)c1cccnc1 [Compound 4j] | > 10 µM | 47.8 ± 3.07 µM | > 10 µM | > 50 µM | anti-RSV activity (in words) (RSV-A [1]; HEp-2 cells): completely devoid of anti-RSV activity
C(#Cc1c[nH]c2ncc(-c3ccsc3)cc12)c1cccnc1 [Compound 4k] | > 10 µM | 4.83 ± 1.44 µM | > 10 µM | > 50 µM | –
COc1cc(OC)cc(-c2cnc3[nH]cc(C#Cc4ccccn4)c3c2)c1 [Compound 5a] | > 10 µM | 0.08 µM | > 10 µM | 0.24 ± 0.23 µM | –
COc1cc(OC)cc(-c2cnc3[nH]cc(C#Cc4ccccc4)c3c2)c1 [Compound 5b] | > 10 µM | 1.59 ± 0.59 µM | > 10 µM | 6 ± 4.35 µM | –
COc1cc(OC)cc(-c2cnc3[nH]cc(C#Cc4ccc(F)cc4)c3c2)c1 [Compound 5c] | 6.27 ± 0.93 µM | 0.36 ± 0.064 µM | > 10 µM | 1.66 ± 0.89 µM | –
COc1cc(OC)cc(-c2cnc3[nH]cc(C#Cc4cccc(Cl)c4)c3c2)c1 [Compound 5d] | 6.13 ± 0.94 µM | 16.3 µM | > 10 µM | > 50 µM | loss of activity against RSV-A relative to compound 4d (RSV-A [1]; HEp-2 cells): 30 fold
COc1cccc(C#Cc2c[nH]c3ncc(-c4cc(OC)cc(OC)c4)cc23)c1 [Compound 5e] | 6.29 ± 2.71 µM | 2.75 ± 0.24 µM | > 10 µM | > 50 µM | loss of activity against RSV-A relative to compound 4d (RSV-A [1]; HEp-2 cells): 5 fold
COc1cc(OC)cc(-c2cnc3[nH]cc(C#Cc4ccsc4)c3c2)c1 [Compound 5f] | 4.3 ± 0.47 µM | 0.31 ± 0.13 µM | > 10 µM | 1.84 ± 0.95 µM | –
COc1cc(OC)cc(-c2cnc3c(c2)c(C#Cc2cccnc2)cn3C)c1 [Compound 7a] | > 10 µM | 1.65 ± 0.5 µM | > 10 µM | 30 ± 28.3 µM | AAK1 affinity (in words) (AAK1): no AAK1 affinity; IC50 (AAK1): > 10 µM
CCn1cc(C#Cc2cccnc2)c2cc(-c3cc(OC)cc(OC)c3)cnc21 [Compound 7b] | 3.92 ± 1.15 µM | > 2 µM | > 10 µM | 2 µM | –
COc1cc(OC)cc(-c2cnc3c(c2)c(C#Cc2cccnc2)cn3CC(C)C)c1 [Compound 7c] | > 10 µM | > 10 µM | > 10 µM | 10.7 ± 0.98 µM | –
COc1cc(OC)cc(-c2cnc3c(c2)c(C#Cc2cccnc2)cn3Cc2ccccc2)c1 [Compound 7d] | > 10 µM | 4.88 ± 0.28 µM | > 10 µM | > 50 µM | –

Molecule | EC50 (VEEV (TC-83)) | EC50 (RSV-A [1]; [6]) | CC50 (in vitro [2]) | CC50 at 4 days (in vitro [3]) | other results
O=C(c1cccc(-c2cnc3[nH]cc(C#Cc4cccnc4)c3c2)c1)N1CCCC1 [Compound 8L] | > 10 µM | 1 ± 0.94 µM | > 10 µM | 5.71 ± 0.044 µM | EC50 (SARS-CoV-2): 0.96 ± 0.32 µM; CC50 (in vitro [5]): 6.46 ± 1.75 µM
CNC(=O)c1ccc(-c2cnc3[nH]cc(C#Cc4cccnc4)c3c2)cc1 [Compound 8a] | 2.72 ± 0.93 µM | 0.89 ± 0.4 µM | > 10 µM | 6 ± 5.66 µM | –
O=C(NC1CC1)c1ccc(-c2cnc3[nH]cc(C#Cc4cccnc4)c3c2)cc1 [Compound 8d] | > 10 µM | 4.63 ± 3.71 µM | > 10 µM | 50 µM | –
CC(C)CNC(=O)c1cccc(-c2cnc3[nH]cc(C#Cc4cccnc4)c3c2)c1 [Compound 8g] | 3.75 ± 1.08 µM | 0.66 ± 0.22 µM | > 10 µM | 3.38 ± 1.01 µM | EC50 (SARS-CoV-2): 0.76 ± 0.46 µM; CC50 (in vitro [5]): > 85 µM
COCCNC(=O)c1cccc(-c2cnc3[nH]cc(C#Cc4cccnc4)c3c2)c1 [Compound 8h] | 2.48 ± 1.27 µM | 0.72 ± 0.46 µM | > 10 µM | 17.3 ± 7.88 µM | EC50 (SARS-CoV-2): 2.13 ± 1.91 µM; CC50 (in vitro [5]): > 100 µM
O=C(NCc1ccccc1)c1cccc(-c2cnc3[nH]cc(C#Cc4cccnc4)c3c2)c1 [Compound 8i] | 1.29 ± 1.41 µM | 2.71 ± 2.88 µM | > 10 µM | > 50 µM | –
CN(C)C(=O)c1cccc(-c2cnc3[nH]cc(C#Cc4cccnc4)c3c2)c1 [Compound 8j] | 4.57 ± 4.87 µM | 3.65 ± 2.28 µM | > 10 µM | > 50 µM | –
CCN(CC)C(=O)c1cccc(-c2cnc3[nH]cc(C#Cc4cccnc4)c3c2)c1 [Compound 8k] | > 10 µM | 0.97 ± 0.18 µM | > 10 µM | 4.04 ± 0.14 µM | EC50 (SARS-CoV-2): 10.2 ± 0.14 µM; CC50 (in vitro [5]): 88.5 ± 1.41 µM
O=C(c1cccc(-c2cnc3[nH]cc(C#Cc4cccnc4)c3c2)c1)N1CCOCC1 [Compound 8m] | > 10 µM | 3.42 ± 4.4 µM | > 10 µM | 10.9 ± 0.69 µM | –
O=C(NC1CC1)c1cccc(-c2cnc3[nH]cc(C#Cc4ccc(F)nc4)c3c2)c1 [Compound 9a] | 6.54 ± 1.21 µM | 1.76 ± 0.91 µM | > 10 µM | > 50 µM | loss in anti-RSV activity relative to compound 8f (RSV-A [1]; HEp-2 cells): 10 fold
COc1cncc(C#Cc2c[nH]c3ncc(-c4cccc(C(=O)NC5CC5)c4)cc23)c1 [Compound 9b] | 1.39 ± 0.2 µM | 0.24 ± 0.057 µM | 8.99 ± 1.6 µM | 22.2 ± 3.68 µM | –
Cc1cncc(C#Cc2c[nH]c3ncc(-c4cccc(C(=O)NC5CC5)c4)cc23)c1 [Compound 9c] | 1.8 ± 0.32 µM | 0.18 ± 0.085 µM | > 10 µM | > 50 µM | EC50 (SARS-CoV-2): 1.82 ± 0.83 µM; CC50 (in vitro [5]): > 100 µM
O=C(NC1CC1)c1cccc(-c2cnc3[nH]cc(C#Cc4ccccc4)c3c2)c1 [Compound 9d] | > 10 µM | 0.82 ± 0.22 µM | > 10 µM | > 50 µM | –
O=C(NC1CC1)c1cccc(-c2cnc3[nH]cc(C#Cc4ccsc4)c3c2)c1 [Compound 9e] | > 10 µM | 0.51 ± 0.16 µM | > 10 µM | > 50 µM | –
O=C(NC1CC1)c1cccc(-c2cnc3[nH]cc(C#Cc4cccc(Cl)c4)c3c2)c1 [Compound 9f] | 6.7 ± 2.79 µM | > 50 µM | > 10 µM | > 50 µM | anti-RSV activity (in words) (RSV-A [1]; HEp-2 cells): inactive
COc1cccc(C#Cc2c[nH]c3ncc(-c4cccc(C(=O)NC5CC5)c4)cc23)c1 [Compound 9g] | 5.27 ± 1.01 µM | 0.1 ± 0.19 µM | > 10 µM | > 20 µM | –
N#C[C@@]1(c2ccc3c(N)ncnn23)O[C@H](CO)[C@@H](O)[C@H]1O [GS-441524, reference compound] | – | – | – | – | EC50 (SARS-CoV-2): 0.7 ± 0.07 µM
CN1CCN(C)/C(=N/c2ccc([N+](=O)[O-])cc2C(=O)Nc2ccccc2)C1 [ML-336, (E)-2-((1,4-Dimethylpiperazin-2-ylidene)amino)-5-nitro-N-phenylbenzamide, reference compound] | 0.04 ± 0.01 µM | – | > 10 µM | – | –
NC(=O)c1ncn([C@@H]2O[C@H](CO)[C@@H](O)[C@H]2O)n1 [Ribavirin, reference compound] | – | 3.11 ± 1.85 µM | – | > 50 µM | –
Cc1ccc(CCCO)c(NCc2ccc3nc(NCCCN4CCOCC4)n(Cc4nc(C)ccc4O)c3c2)c1 [TMC353121, reference compound] | – | – | – | – | EC50 (RSV-A [1]; [7]): 0.0013 ± 0.0008 µM
dextran sulfate sodium salt [DS-10000, reference compound] | – | – | – | – | EC50 (RSV-A [1]; [7]): 0.068 ± 0.045 µM
